We go through one molecule from US20090061027A1, “Composition For The Prevention and Treatment Of Common Cold Diseases” (priority 2006, published 2009).

The test system of this data set is A549 cells. Nature of the data set: Examination of the apoptotic caspase activation (Western Blot, PARP cleaving). The note with it: 48 hours, extract 25 and 50 μg/ml, staurosporine as positive control stimulus. In kind it is cell-based. The protocol: To examine the apoptotic caspase activation, A549 cells were treated with 25 and 50 μg/ml of the extract for 48 hours. The cells were then lysed, and the cellular proteins were separated using gel electrophoresis and examined in the Western Blot with an antiPARP antibody (Poly(ADP-Ribose) polymerase, caspase substrate) for the apoptotic cleaving of this protein by caspases. The apoptosis-inductor staurosporine served as the positive control stimulus. The experiments were conducted in two parallel batches.
Background: In western blotting, separated proteins are transferred to a membrane and probed.

Each structure is given as a SMILES string.

In the case of `CN[C@@H]1C[C@H]2O[C@@](C)([C@@H]1OC)n1c3ccccc3c3c4c(c5c6ccccc6n2c5c31)C(=O)NC4` [staurosporine], the “caspase activation / apoptotic cleaving of PARP” value is recorded as “efficient cleaving of the caspase substrate”.
